Patent publication US8124624B2, “Substituted sulfonamide compounds” (Gruenenthal GmbH, priority 2008, dated 2012)
Counter-ions that a name gives are not always drawn. Like-named read-outs stand apart in the source and are kept apart here.

Tests used:
human B1R = target: T1, human B1R (Homo sapiens, UniProt P46663); assay: FLIPR Ca2+ influx assay, B1R antagonism, human (hB1R CHO K1 cells); type: cell-based
T1 construct: expressed in transfected cells; host or cells: CHO K1 cells (hB1R cells)
T1 sequence (P46663 1-353): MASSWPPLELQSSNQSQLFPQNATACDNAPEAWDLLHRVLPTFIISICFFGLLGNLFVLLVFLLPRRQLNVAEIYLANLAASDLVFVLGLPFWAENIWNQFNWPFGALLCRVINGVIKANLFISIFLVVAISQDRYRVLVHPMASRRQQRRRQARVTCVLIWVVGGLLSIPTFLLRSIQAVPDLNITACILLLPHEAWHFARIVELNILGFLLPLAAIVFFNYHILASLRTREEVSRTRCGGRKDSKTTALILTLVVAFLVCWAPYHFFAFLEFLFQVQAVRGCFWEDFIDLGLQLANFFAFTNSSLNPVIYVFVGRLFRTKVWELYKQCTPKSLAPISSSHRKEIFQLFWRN
Description: The agonistic or antagonistic action of substances can be quantified on the bradykinin receptor 1 (B1R) of the species human and rat using ectopically expressing cell lines (CHO K1 cells) and with the aid of a Ca^2+-sensitive dye (Fluo-4) using a fluorescent imaging plate reader (FLIPR). The indication in % activation is based on the Ca^2+ signal after addition of Lys-Des-Arg^9-bradykinin (0.5 nM) or Des-Arg^9-bradykinin (100 nM). Antagonists lead to suppression of the Ca^2+ influx after the addition of the agonist. % Inhibition compared with the maximum achievable inhibition is indicated.
The agonistic or antagonistic action of substances can be determined on the bradykinin receptor 1 (B1R) of the species human and rat using the following assay. According to this assay, the Ca^2+ influx through the channel is quantified with the aid of a Ca^2+-sensitive dye (Fluo-4 type, Molecular Probes Europe BV, Leiden, Netherlands) using a Fluorescent Imaging Plate Reader (FLIPR, Molecular Devices, Sunnyvale, USA).
Chinese hamster ovary cells (CHO K1 cells) which have been stably transfected with the human B1R gene (hB1R cells) or with the B1R gene of the rat (rB1R cells) are used. For functional studies, the cells are plated out on black 96-well plates having a clear base (BD Biosciences, Heidelberg, Germany or Greiner, Frickenhausen, Germany) in a density of 20,000-35,000 cells/well. The cells are incubated overnight at 37° C. and with 5% CO2 in culture medium (hB1R cells: Nutrient Mixture Ham's F12, Gibco Invitrogen GmbH, Karlsruhe, Germany or DMEM, Sigma-Aldrich, Taufkirchen, Germany; rB1R cells: D-MEM/F12, Gibco Invitrogen GmbH, Karlsruhe, Germany), with 10 vol. % FBS (fetal bovine serum, Gibco Invitrogen GmbH, Karlsruhe, Germany or PAN Biotech GmbH, Aidenbach, Germany).
On the following day, the cells are loaded for 60 minutes at 37° C. with 2.13 μM Fluo-4 (Molecular Probes Europe BV, Leiden, Netherlands) in HBSS buffer (Hank's buffered saline solution, Gibco Invitrogen GmbH, Karlsruhe, Germany) […] (Sigma-Aldrich, Taufkirchen, Germany) and 10 mM HEPES (Sigma-Aldrich, Taufkirchen, Germany). The plates are then washed twice with HBSS buffer, and HBSS buffer additionally containing 0.1% BSA (bovine serum albumin; Sigma-Aldrich, Taufkirchen, Germany), 5.6 mM glucose and 0.05% gelatin (Merck KGaA, Darmstadt, Germany) is added to the plates. After incubation for a further 20 minutes at room temperature, the plates are inserted into the FLIPR for Ca^2+ measurement.
Alternatively, washing is carried out with buffer A (15 mM HEPES, 80 mM NaCl, 5 mM KCl, 1.2 mM CaCl2, 0.7 mM MgSO4, 2 g/l glucose, 2.5 mM probenecid) followed by loading with buffer A with added 2.5 μM Fluo-4 and 0.025% Pluronic F127 (Sigma-Aldrich, Taufkirchen, Germany). The cells are then washed twice with buffer A and incubated for 30 minutes at room temperature with buffer A additionally containing 0.05% BSA and 0.05% gelatin and are then inserted into the FLIPR for Ca^2+ measurement.
The Ca^2+-dependent fluorescence is measured before and after the addition of substances (λex=488 nm, λem=540 nm). Quantification is carried out by measuring the highest fluorescence intensity (FC, fluorescence counts) over time.
The FLIPR protocol consists of two substance additions. Test substances (10 μM) are first pipetted onto the cells and the Ca^2+ influx is compared with the control (hB1R: Lys-Des-Arg^9-bradykinin >=50 nM; rB1R: Des-Arg^9-bradykinin 10 μM). This gives the activation in %, based on the Ca^2+ signal after addition of Lys-Des-Arg^9-bradykinin (>=50 nM) or Des-Arg^9-bradykinin (10 μM). After 10-20 minutes' incubation, Lys-Des-Arg^9-bradykinin (hB1R) or Des-Arg^9-bradykinin (rB1R) is applied in the concentration of the EC80, and the influx of Ca^2+ is likewise determined. Antagonists lead to suppression of the Ca^2+ influx. The % inhibition compared with the maximum achievable inhibition is calculated. […]

B1R of the rat = target: T2, B1R of the rat (Rattus norvegicus, UniProt P97583); assay: FLIPR Ca2+ influx assay, B1R antagonism, rat (rB1R CHO K1 cells); type: cell-based
T2 construct: expressed in transfected cells; host or cells: CHO K1 cells (rB1R cells)
T2 sequence (P97583 1-337): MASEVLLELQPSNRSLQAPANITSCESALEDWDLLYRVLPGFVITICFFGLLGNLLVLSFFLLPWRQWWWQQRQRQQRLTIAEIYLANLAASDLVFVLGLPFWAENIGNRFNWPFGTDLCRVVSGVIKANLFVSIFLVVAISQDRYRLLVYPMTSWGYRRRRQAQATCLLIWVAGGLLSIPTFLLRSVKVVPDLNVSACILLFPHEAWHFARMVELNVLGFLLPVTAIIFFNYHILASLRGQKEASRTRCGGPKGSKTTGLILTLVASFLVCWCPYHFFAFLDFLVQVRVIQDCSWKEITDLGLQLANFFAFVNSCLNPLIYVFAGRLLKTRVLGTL
How it was run: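 CHO K1 cells stably expressing human or rat B1R were loaded with Fluo-4, and Ca^2+ fluorescence was read on a FLIPR. After 10–20 min with test substance, agonist was added at EC80: Lys-Des-Arg^9-bradykinin for hB1R, Des-Arg^9-bradykinin for rB1R. % inhibition is relative to maximal inhibition; IC50 from multiple concentrations, n=2–3, N≥2.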

[1] = test substance 10 μM, CHO K1 cells stably transfected with human B1R, agonist Lys-Des-Arg9-bradykinin at EC80, % inhibition compared with maximum achievable inhibition, read-out: B1R antagonism, human [10 μM] % inhibition
[2] = test substance 10 μM, CHO K1 cells stably transfected with rat B1R, agonist Des-Arg9-bradykinin at EC80, % inhibition compared with maximum achievable inhibition, read-out: B1R antagonism, rat [10 μM] % inhibition

Structure (SMILES) | inhibition at 10 µM (human B1R; [1]) [%] | inhibition at 10 µM (B1R of the rat; [2]) [%] | inhibition at 10 µM (human B1R; CHO-K1, read-out: B1R antagonism, human [10 μM] % inhibition) [%] | inhibition at 10 µM (B1R of the rat; CHO-K1, read-out: B1R antagonism, rat [10 μM] % inhibition) [%]
Cc1cccc(Cl)c1S(=O)(=O)N(CCOCC(=O)N1CCC(CCCN2CCCC2)(c2cccc(C(F)(F)F)c2)CC1)C1CC1 [Example 78, 2-Chloro-N-cyclopropyl-6-methyl-N-[2-[2-oxo-2-[4-(3-pyrrolidin-1-yl-propyl)-4-[3-(trifluoromethyl)phenyl]-piperidin-1-yl]-ethoxy]-ethyl]-benzenesulfonic acid amide] | 97 | 92 |  | 
COc1cc(C)c(S(=O)(=O)N(C)CCOCC(=O)N2CCC(CCN3CCCC3)(c3cccnc3)CC2)c(C)c1 [Example 3, 4-Methoxy-N,2,6-trimethyl-N-(2-(2-oxo-2-(4-(pyridin-3-yl)-4-(2-(pyrrolidin-1-yl)ethyl)piperidin-1-yl)ethoxy)ethyl)benzenesulfonamide] |  |  | 103 | 101
COc1cc(C)c(S(=O)(=O)N2c3ccccc3CCC2COCC(=O)N2CCC(CCCN3CCCC3)(c3cccnc3)CC2)c(C)c1 (stereo not drawn) [Example 53, 2-[[1-[(4-Methoxy-2,6-dimethyl-phenyl)sulfonyl]-1,2,3,4-tetrahydro-quinolin-2-yl]-methoxy]-1-[4-pyridin-3-yl-4-(3-pyrrolidin-1-yl-propyl)-piperidin-1-yl]-ethanone] | 100 | 102 |  | 
Cc1cc(S(=O)(=O)N2CCCCC2CCC(=O)N2CCC(CCCN3CCCC3)(c3cccnc3)CC2)c(C)cc1Cl (stereo not drawn) [Example 15, 3-(1-(4-Chloro-2,5-dimethylphenylsulfonyl)piperidin-2-yl)-1-(4-(pyridin-3-yl)-4-(3-(pyrrolidin-1-yl)propyl)piperidin-1-yl)propan-1-one] | 84 | 76 |  | 
COc1cc(C)c(S(=O)(=O)N2CCCC[C@H]2COCC(=O)N2CCC(CCN3CCCC3)(c3cccnc3)CC2)c(C)c1 [Example 80, 2-[[(2S)-1-[(4-Methoxy-2,6-dimethyl-phenyl)sulfonyl]-piperidin-2-yl]-methoxy]-1-[4-pyridin-3-yl-4-(2-pyrrolidin-1-yl-ethyl)-piperidin-1-yl]-ethanone hydrochloride] | 100 | 104 |  | 
Cc1cccc(Cl)c1S(=O)(=O)N1c2ccccc2OCC1COCC(=O)N1CCC(CCCN2CCCC2)(c2cccnc2)CC1 (stereo not drawn) [Example 72, 2-[[4-[(2-Chloro-6-methyl-phenyl)sulfonyl]-3,4-dihydro-2H-[1,4]benzoxazin-3-yl]-methoxy]-1-[4-pyridin-3-yl-4-(3-pyrrolidin-1-yl-propyl)-piperidin-1-yl]-ethanone] | 100 | 103 |  | 

Now from value to compound, other results behind:

inhibition at 10 µM (human B1R; [1]) [%] | inhibition at 10 µM (B1R of the rat; [2]) [%] | Structure (SMILES) | inhibition at 10 µM (human B1R; CHO-K1, read-out: B1R antagonism, human [10 μM] % inhibition) [%] | inhibition at 10 µM (B1R of the rat; CHO-K1, read-out: B1R antagonism, rat [10 μM] % inhibition) [%]
97 | 101 | COc1cc(C)c(S(=O)(=O)N(C)CCOCC(=O)N2CCC(CCCN3CCCC3)(c3cccnc3)CC2)c(C)c1 [Example 13, 4-Methoxy-N,2,6-trimethyl-N-(2-(2-oxo-2-(4-(pyridin-3-yl)-4-(3-(pyrrolidin-1-yl)propyl)piperidin-1-yl)ethoxy)ethyl)benzenesulfonamide] |  | 
100 | 101 | COc1cc(C)c(S(=O)(=O)N(C)CCOCC(=O)N2CCC(CCCN(C)C)(c3cccnc3)CC2)c(C)c1 [Example 23, N-(2-(2-(4-(3-(Dimethylamino)propyl)-4-(pyridin-3-yl)piperidin-1-yl)-2-oxoethoxy)ethyl)-4-methoxy-N,2,6-trimethylbenzenesulfonamide] |  | 
100 | 102 | COc1cc(C)c(S(=O)(=O)N2CCCC[C@H]2COCC(=O)N2CCC(CCCN3CCCC3)(c3cccnc3)CC2)c(C)c1 [Example 81, 2-[[(2S)-1-[(4-Methoxy-2,6-dimethyl-phenyl)sulfonyl]-piperidin-2-yl]-methoxy]-1-[4-pyridin-3-yl-4-(3-pyrrolidin-1-yl-propyl)-piperidin-1-yl]-ethanone hydrochloride] |  | 
